The target in one data set is Cyp3A4 (Homo sapiens, UniProt P08684). Nature of the data set: Cyp enzyme inhibition, human liver microsomes. It counts as in vitro ADME. Also on record: Human liver microsomes were pre-incubated with 7 concentrations; tissue Cyprotex/Evotec AG; host or cells: human liver microsomes. As to the method: Cyp enzyme inhibition. Human liver microsomes were pre-incubated with 7 concentrations ([…], duplicate wells) of α-NETA for 30 min.
On the technique in general: Liver microsomes are vesicles of endoplasmic reticulum, rich in cytochrome P450 enzymes.

The target in a further data set is Cyp1A2 (Homo sapiens, UniProt P05177). Particulars: PubChem BioAssay ID 1476; read-out: Cyp Inhibition IC50 (μM), Cyp1A2; cited from earlier work.
Chain of Cyp1A2 (P05177 whole entry): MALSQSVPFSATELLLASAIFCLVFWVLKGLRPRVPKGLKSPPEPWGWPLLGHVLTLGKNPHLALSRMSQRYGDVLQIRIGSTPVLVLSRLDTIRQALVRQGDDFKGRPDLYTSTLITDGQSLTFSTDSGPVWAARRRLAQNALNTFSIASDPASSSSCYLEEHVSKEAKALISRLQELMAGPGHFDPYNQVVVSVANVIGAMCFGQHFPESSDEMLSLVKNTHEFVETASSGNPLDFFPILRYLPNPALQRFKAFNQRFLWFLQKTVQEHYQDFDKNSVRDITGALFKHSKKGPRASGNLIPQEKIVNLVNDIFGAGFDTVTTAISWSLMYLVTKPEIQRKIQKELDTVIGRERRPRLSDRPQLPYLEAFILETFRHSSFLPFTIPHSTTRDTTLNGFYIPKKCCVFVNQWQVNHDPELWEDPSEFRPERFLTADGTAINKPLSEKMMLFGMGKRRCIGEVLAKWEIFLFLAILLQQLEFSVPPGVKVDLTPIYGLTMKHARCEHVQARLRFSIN

The structures appear in SMILES notation. Several values for one entry are separate records, joined by “and”; a condition that tells them apart may be missing. Equal values may be shown once. Read-outs that look alike come from different tables or passages of the source.

Chain of Cyp3A4 (P08684 whole entry): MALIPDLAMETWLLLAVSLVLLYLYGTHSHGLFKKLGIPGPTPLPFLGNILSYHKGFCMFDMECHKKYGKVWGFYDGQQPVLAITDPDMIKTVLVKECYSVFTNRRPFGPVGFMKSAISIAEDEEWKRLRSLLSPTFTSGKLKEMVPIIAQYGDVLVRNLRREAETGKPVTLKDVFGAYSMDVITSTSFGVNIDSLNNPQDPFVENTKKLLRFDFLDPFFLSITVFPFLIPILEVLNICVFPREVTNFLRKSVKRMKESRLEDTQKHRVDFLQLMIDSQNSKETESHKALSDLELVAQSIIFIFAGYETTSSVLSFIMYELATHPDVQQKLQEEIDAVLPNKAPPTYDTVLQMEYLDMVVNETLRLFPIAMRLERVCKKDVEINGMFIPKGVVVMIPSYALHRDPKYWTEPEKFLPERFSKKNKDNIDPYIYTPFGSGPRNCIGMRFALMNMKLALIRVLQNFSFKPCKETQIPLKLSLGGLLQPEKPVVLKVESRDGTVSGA

As for `C[N+](C)(C)CCC(=O)c1cccc2ccccc12.[I-]` [α-NETA, 2-(α-naphthoyl) ethyltrimethylammonium iodide], the IC50 (as a rule, the point on the concentration scale where inhibition reaches its midpoint) on Cyp3A4 (human liver microsomes, substrate Midazolam, read-out: Cyp Inhibition IC50 (μM), Cyp3A4) is 7.4 µM and 7.5 µM; at Cyp3A4 (substrate testosterone, read-out: Cyp3A4 IC50), 6.9 µM; on Cyp1A2, 8 µM.

The record behind these values is US11730705B2, “Small molecule CMKLR1 antagonists in inflammatory disease” (The Board of Trustees of the Leland Stanford Junior …, priority 2019, dated 2023).
